The record followed here is patent publication US9156796B2, “Benzoimidazole-carboxylic acid amide derivatives as APJ receptor modulators” (SANOFI, priority 2013, dated 2015).

Each structure is given as a SMILES string.

As a reminder, the EC50 is the midpoint of the concentration-response curve.

For the first assay, the target named is T1, human apelin receptor (Homo sapiens, UniProt P35414).
T1 construct: expressed in transfected cells
T1 sequence (P35414 1-380): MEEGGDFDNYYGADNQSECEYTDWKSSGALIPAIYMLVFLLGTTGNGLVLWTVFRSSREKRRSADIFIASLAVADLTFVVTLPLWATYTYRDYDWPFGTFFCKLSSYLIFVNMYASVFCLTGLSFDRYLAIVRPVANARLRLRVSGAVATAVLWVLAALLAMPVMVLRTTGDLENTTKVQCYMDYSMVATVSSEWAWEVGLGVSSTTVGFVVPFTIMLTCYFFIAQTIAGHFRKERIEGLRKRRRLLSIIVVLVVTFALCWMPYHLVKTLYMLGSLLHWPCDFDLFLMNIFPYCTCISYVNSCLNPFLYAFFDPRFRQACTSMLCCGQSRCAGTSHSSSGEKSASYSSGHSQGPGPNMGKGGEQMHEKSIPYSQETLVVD
In words: Determination of agonism on the human apelin receptor by a calcium fluorescence assay (FLIPR). The format is cell-based. Conditions: EC50 (APJ agonism), HEK293 cells stably transfected with human apelin receptor and Giaq protein, Fluo-4 calcium fluorescence. In short, it runs like this:
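Agonist EC50s come from peak intracellular calcium transients recorded by FLIPR Tetra, scaled to the 1 μM apelin-13 maximum per plate. Test system: HEK293 stably transfected with human apelin receptor plus Giaq, Fluo-4-loaded (4 μM, 1 h, 37 °C, pH 7.4 buffer with probenecid); ≥7 concentrations, triplicates.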
Take `CCCCC(CO)NC(=O)c1ccc2c(c1)nc(CC1CCCC1)n2C(CC)CC` (stereo not shown) [Example 182, 2-Cyclopentylmethyl-1-(1-ethyl-propyl)-1H-benzoimidazole-5-carboxylic acid (1-hydroxymethyl-pentyl)-amide]: the EC50 amounted to 11 µM.

Staying with this assay, now noted: HEK293 cells stably transfected with human apelin receptor and Giaq protein, Fluo-4 calcium fluorescence, read-out: EC50 (APJ agonism).
In the case of `CCC(CC)n1c(Cc2cccs2)nc2cc(C(=O)N[C@@H](CC(C)C)C(=O)NCCN3CCCCC3)ccc21` [Example 233, 1-(1-Ethyl-propyl)-2-thiophen-2-ylmethyl-1H-benzoimidazole-5-carboxylic acid [(S)-3-methyl-1-(2-piperidin-1-yl-ethylcarbamoyl)-butyl]-amide], the EC50 was 0.394 µM.
For the molecule `CCC(CC)n1c(Cc2cccs2)nc2cc(C(=O)N[C@H](CO)CCSC)ccc21` [Example 188, 1-(1-Ethyl-propyl)-2-thiophen-2-ylmethyl-1H-benzoimidazole-5-carboxylic acid ((S)-1-hydroxymethyl-3-methylsulfanyl-propyl)-amide], the EC50 came out at 4.52 µM.
As to `CC(C)C[C@H](NC(=O)c1ccc2c(c1)nc(Cc1cccs1)n2C1CCCCC1C)C(=O)O` (single isomer, unassigned) [Example 413], the EC50 stood at 1.02 µM.
For the molecule `CCC(CC)n1c(Cc2cccs2)nc2cc(C(=O)N[C@@H](CC(C)C)C(=O)N3CCCN(Cc4c(F)cccc4Cl)CC3)ccc21` [Example 274, 1-(1-Ethyl-propyl)-2-thiophen-2-ylmethyl-1H-benzoimidazole-5-carboxylic acid {(S)-1-[4-(2-chloro-6-fluoro-benzyl)-[1,4]diazepane-1-carbonyl]-3-methyl-butyl}-amide], the half-maximal effective concentration (EC50) was 12.6 µM.
For the molecule `CCC(CC)n1c(Cc2cccs2)nc2cc(C(=O)NC(C)(Cc3ccccc3)C(=O)O)ccc21` (stereo not shown) [Example 4, 2-{[1-(1-Ethyl-propyl)-2-thiophen-2-ylmethyl-1H-benzoimidazole-5-carbonyl]-amino}-2-methyl-3-phenyl-propionic acid], the EC50 was 16.8 µM.
Consider `CCC(CC)n1c(CC2CCCC2)nc2cc(C(=O)N[C@H](CO)[C@@H](C)CC)ccc21` [Example 180, 2-Cyclopentylmethyl-1-(1-ethyl-propyl)-1H-benzoimidazole-5-carboxylic acid ((1S,2S)-1-hydroxymethyl-2-methyl-butyl)-amide], for which the EC50 turned out to be 6.17 µM.
For `CCC(CC)n1c(Cc2cccs2)nc2cc(C(=O)NC(CC(=O)O)CC3CCCCC3)ccc21` (single isomer, unassigned) [Example 455], the EC50 came out at 0.16 µM.
`CCC[C@@H](CO)NC(=O)c1ccc2c(c1)nc(Cc1cccs1)n2C(CC)CC` [Example 201, 1-(1-Ethyl-propyl)-2-thiophen-2-ylmethyl-1H-benzoimidazole-5-carboxylic acid ((S)-1-hydroxymethyl-butyl)-amide]: the EC50 worked out at 0.334 µM.
As for `CCC(CC)n1c(Cc2cccs2)nc2cc(C(=O)NC(CC(=O)O)C3CCCCC3)ccc21` (stereo not shown) [Example 44, 3-Cyclohexyl-3-{[1-(1-ethyl-propyl)-2-thiophen-2-ylmethyl-1H-benzoimidazole-5-carbonyl]-amino}-propionic acid], the EC50 turned out to be 0.258 µM.
As for `CCC(CC)n1c(Cc2cccs2)nc2cc(C(=O)N[C@@H](CC(C)C)C(=O)NC)ccc21` [Example 381, 1-(1-Ethyl-propyl)-2-thiophen-2-ylmethyl-1H-benzoimidazole-5-carboxylic acid ((S)-3-methyl-1-methylcarbamoyl-butyl)-amide], the EC50 stood at 0.97 µM.
Regarding `CCC(CC)n1c(Cc2cccs2)nc2cc(C(=O)N[C@@H](CC(C)C)C(=O)NC(C)CCCN(CC)CC)ccc21` (stereo partly drawn) [Example 314, 1-(1-Ethyl-propyl)-2-thiophen-2-ylmethyl-1H-benzoimidazole-5-carboxylic acid [(S)-1-(4-diethylamino-1-methyl-butylcarbamoyl)-3-methyl-butyl]-amide], the EC50 came out at 0.474 µM.
Turning to `CCC(CC)n1c(Cc2cccs2)nc2cc(C(=O)N[C@@H](CC(C)C)C(=O)NCCc3cccc(OC)c3)ccc21` [Example 360, 1-(1-Ethyl-propyl)-2-thiophen-2-ylmethyl-1H-benzoimidazole-5-carboxylic acid {(S)-1-[2-(3-methoxy-phenyl)-ethylcarbamoyl]-3-methyl-butyl}-amide], the EC50 was determined as 21.2 µM.
With `CCC(C)Cn1c(CC2CCCC2)nc2cc(C(=O)N[C@@H](CC(C)C)C(=O)O)ccc21` (stereo partly drawn) [Example 109, (S)-2-{[2-Cyclopentylmethyl-1-(2-methyl-butyl)-1H-benzoimidazole-5-carbonyl]-amino}-4-methyl-pentanoic acid], the EC50 came to 3.86 µM.
`CCCC(CO)NC(=O)c1ccc2c(c1)nc(CC1CCCC1)n2C(CC)CC` (stereo not shown) [Example 181, 2-Cyclopentylmethyl-1-(1-ethyl-propyl)-1H-benzoimidazole-5-carboxylic acid (1-hydroxymethyl-butyl)-amide]: the EC50 amounted to 6.95 µM.
The same measure, in the same setting: the same measure for `CCC(CC)n1c(Cc2cccs2)nc2cc(C(=O)N[C@@H](CC(C)C)C(=O)N(C)CCOC)ccc21` [Example 380, 1-(1-Ethyl-propyl)-2-thiophen-2-ylmethyl-1H-benzoimidazole-5-carboxylic acid {(S)-1-[(2-methoxy-ethyl)-methyl-carbamoyl]-3-methyl-butyl}-amide]: 0.586 µM; for `CCC(CC)n1c(Cc2cccs2)nc2cc(C(=O)N[C@@H](CC(C)C)C(=O)NCC3CCN(C(C)c4ccccc4)C3)ccc21` (stereo partly drawn) [Example 353, 1-(1-Ethyl-propyl)-2-thiophen-2-ylmethyl-1H-benzoimidazole-5-carboxylic acid ((S)-3-methyl-1-{[1-(1-phenyl-ethyl)-pyrrolidin-3-ylmethyl]-carbamoyl}-butyl)-amide]: 0.787 µM.
Take `CCC(CC)n1c(Cc2cscn2)nc2cc(C(=O)N[C@@H](CC(C)C)C(N)=O)ccc21` [Example 172, 1-(1-Ethyl-propyl)-2-thiazol-4-ylmethyl-1H-benzoimidazole-5-carboxylic acid ((S)-1-carbamoyl-3-methyl-butyl)-amide]: the EC50 was found to be 4.89 µM.
On the same count and under the same terms, the value for `CCC(CC)n1c(Cc2cccs2)nc2cc(C(=O)N[C@@H](CC(C)C)C(=O)NCCCCN(CC)CC)ccc21` [Example 261, 1-(1-Ethyl-propyl)-2-thiophen-2-ylmethyl-1H-benzoimidazole-5-carboxylic acid [(S)-1-(4-diethylamino-butylcarbamoyl)-3 methyl-butyl]-amide] was 0.269 µM; that for `CCC(CC)n1c(Cc2cccs2)nc2cc(C(=O)NC(CCO)C3CC3)ccc21` (stereo not shown) [Example 213, 1-(1-Ethyl-propyl)-2-thiophen-2-ylmethyl-1H-benzoimidazole-5-carboxylic acid (1-cyclopropyl-3-hydroxy-propyl)-amide] was 29.9 µM; that for `CCC(CC)n1c(Cc2cccs2)nc2cc(C(=O)N[C@@H](CC(C)C)C(=O)NC3COC4(CCCCC4)C3)ccc21` (stereo partly drawn) [Example 397, 1-(1-Ethyl-propyl)-2-thiophen-2-ylmethyl-1H-benzoimidazole-5-carboxylic acid [(S)-3-methyl-1-(1-oxa-spiro[4.5]dec-3-ylcarbamoyl)-butyl]-amide] was 8.74 µM.
On to `CCC(CC)n1c(Cc2cccs2)nc2cc(C(=O)NC3(C(=O)O)CCCCC3)ccc21` [Example 24, 1-{[1-(1-Ethyl-propyl)-2-thiophen-2-ylmethyl-1H-benzoimidazole-5-carbonyl]-amino}-cyclohexanecarboxylic acid], for which the EC50 amounted to 0.219 µM.
On the same count and under the same terms, the same measure for `CCC(CC)n1c(Cc2cccs2)nc2cc(C(=O)N[C@@H](CC(C)C)C(=O)N3CCCN(Cc4ccc(F)cc4)CC3)ccc21` [Example 324, 1-(1-Ethyl-propyl)-2-thiophen-2-ylmethyl-1H-benzoimidazole-5-carboxylic acid {(S)-1-[4-(4-fluoro-benzyl)-[1,4]diazepane-1-carbonyl]-3-methyl-butyl}-amide]: 16.8 µM; for `CCC(CC)n1c(Cc2cccs2)nc2cc(C(=O)NC(CC(C)(C)C)C(=O)O)ccc21` (stereo not shown) [Example 126, 2-{[1-(1-Ethyl-propyl)-2-thiophen-2-ylmethyl-1H-benzoimidazole-5-carbonyl]-amino}-4,4-dimethyl-pentanoic acid]: 3.93 µM; for `CCC(CC)n1c(Cc2cccs2)nc2cc(C(=O)N[C@@H](CC(C)C)C(=O)N(C)CCc3ccccc3)ccc21` [Example 264, 1-(1-Ethyl-propyl)-2-thiophen-2-ylmethyl-1H-benzoimidazole-5-carboxylic acid [(S)-3-methyl-1-(methyl-phenethyl-carbamoyl)-butyl]-amide]: 3.34 µM.
In the case of `CC(C)C[C@H](NC(=O)c1ccc2c(c1)nc(Cc1cccs1)n2C1CCCCC1)C(N)=O` [Example 168, 1-Cyclohexyl-2-thiophen-2-ylmethyl-1H-benzoimidazole-5-carboxylic acid ((S)-1-carbamoyl-3-methyl-butyl)-amide], the EC50 is 4.53 µM.
On the same count and under the same terms, the value for `CCC(CC)n1c(Cc2cccs2)nc2cc(C(=O)NC(C(N)=O)c3ccccc3)ccc21` (stereo not shown) [Example 170, 1-(1-Ethyl-propyl)-2-thiophen-2-ylmethyl-1H-benzoimidazole-5-carboxylic acid (carbamoyl-phenyl-methyl)-amide] was 10.1 µM; that for `CCC(CC)n1c(Cc2cccs2)nc2cc(C(=O)N[C@@H](CC(C)C)C(=O)NCCSC)ccc21` [Example 258, 1-(1-Ethyl-propyl)-2-thiophen-2-ylmethyl-1H-benzoimidazole-5-carboxylic acid [(S)-3-methyl-1-(2-methylsulfanyl-ethylcarbamoyl)-butyl]-amide] was 1.33 µM.
